We go through 38 compounds from ChEMBL document CHEMBL4483862, “Open-source discovery of chemical leads for next-generation chemoprotective antimalarials” (2018).

The test system of this experiment is Plasmodium berghei. Put plainly: Luciferase/luciferin-expressing antifolate-resistant parasites were used to infect a culture of HepG2 cells that were pre-incubated with compounds. Infected hepatocytes emit light due to the luciferase reaction. Assay results are presented as the percent inhibition of light emission compared to control. […]. In kind it is functional. To be noted: sporozoite; for IC90: read-out: LUCIFERASE INFECTION ASSAY - IC90.

The mark [1] stands for this setting: read-out: LUCIFERASE INFECTION ASSAY - IC50.

SMILES strings stand for the structures.

The term IC50 denotes the point on the concentration scale where inhibition reaches its midpoint. The term IC90 denotes the point of the concentration-response curve where the effect stands at 90%. Turning to `Cc1nn(Cc2ccccc2)c2sc(C(=O)Nc3nc4ccccc4[nH]3)cc12`, the IC90 came out at 0.562 µM. The IC50 (HEPG2TOX_HILL_SLOPE 0.737, HEPG2TOX_R_SQUARED 0.843, PBLUC_HILL_SLOPE 3.70, 1.65, PBLUC_R_SQUARED 0.424, 0.851, read-out: LUCIFERASE INFECTION ASSAY - IC50) was 0.229 µM.

As for `Cc1nnsc1-c1onc(C)c1C(=O)NC(=O)Nc1cc(Cl)cc(Cl)c1`, the IC90 was 3.02 µM. Under “HEPG2TOX_HILL_SLOPE 1.43, HEPG2TOX_R_SQUARED 0.987, PBLUC_HILL_SLOPE 8.7, PBLUC_R_SQUARED 0.518, read-out: LUCIFERASE INFECTION ASSAY - IC50”, the IC50 came out at 2.34 µM.

Regarding `O=C(NCCSCc1ccc(Cl)cc1Cl)c1ccc(Cl)cc1`, the IC90 is greater than 8.81 µM. The IC50 (PBLUC_HILL_SLOPE 13.4, PBLUC_R_SQUARED 0.244, read-out: LUCIFERASE INFECTION ASSAY - IC50) amounted to 7.79 µM.

As for `CS(=O)(=O)Nc1cccc(-c2cn3c(-c4cccs4)cnc3cn2)c1`, the IC90 is greater than 8.91 µM. For the same compound, the IC50 (HEPG2TOX_HILL_SLOPE 4.93, HEPG2TOX_R_SQUARED 0.12, read-out: LUCIFERASE INFECTION ASSAY - IC50) was greater than 8.91 µM.

`Cc1ccc(C(=O)Nc2ccnn2CC(C)C)cn1`: the IC90 was greater than 10 µM. The IC50 under setting [1] is greater than 10 µM.

Consider `c1ccc(Oc2cccc(-c3ccc4nnc(-c5ccc6nccnc6c5)n4c3)c2)cc1`, for which the IC90 is greater than 10 µM. The IC50 (PBLUC_HILL_SLOPE 2.21, PBLUC_R_SQUARED 0.734, read-out: LUCIFERASE INFECTION ASSAY - IC50) stood at 4.56 µM.

For `O=C(c1c[nH]c(-c2ccnc(N3CCCC3)c2)c1)c1ccccc1O`, the IC90 amounted to 7.71 µM. The IC50 (HEPG2TOX_HILL_SLOPE 2.58, 1.58, HEPG2TOX_R_SQUARED 0.907, 0.987, PBLUC_HILL_SLOPE 3.48, 1.53, PBLUC_R_SQUARED 0.289, 0.786, read-out: LUCIFERASE INFECTION ASSAY - IC50) came to 3.06 µM.

Turning to `CC1(c2ccco2)NC(=O)N(NC(=O)c2ccc3ccccc3n2)C1=O` (stereo unspecified), the IC90 was greater than 10 µM. The IC50 under setting [1] was greater than 10 µM.

In the case of `Clc1ccc(CSC2=NNC(c3ccccn3)S2)cc1` (stereo unspecified), the concentration for an effect of 90% (IC90) stood at 9.43 µM. The IC50 (HEPG2TOX_HILL_SLOPE 8.57, HEPG2TOX_R_SQUARED 0.799, PBLUC_HILL_SLOPE 12, PBLUC_R_SQUARED 0.743, read-out: LUCIFERASE INFECTION ASSAY - IC50) turned out to be 7.86 µM.

Consider `N#C/C=C/C=C/c1nnn(-c2ccc(Cl)cc2)n1`, for which the IC90 is 12.6 µM. Also, for the setting “PBLUC_HILL_SLOPE 14.5, PBLUC_R_SQUARED 0.28, read-out: LUCIFERASE INFECTION ASSAY - IC50”, the IC50 came to 10.9 µM.

Take `CC(C)(C)NC(=O)CN1CCN(Cc2ccc(-c3ccccc3C#N)cc2)CC1`: the IC90 was greater than 10 µM. For the same compound, under “HEPG2TOX_HILL_SLOPE 0.417, HEPG2TOX_R_SQUARED 0.524, read-out: LUCIFERASE INFECTION ASSAY - IC50”, the 50% inhibitory concentration (IC50) was greater than 10 µM.

In the case of `Cn1cc(-c2cnc3cnc(-c4ccccc4)cn23)cn1`, the IC90 amounted to 5.95 µM. For the same compound, for the setting “PBLUC_HILL_SLOPE 2.38, PBLUC_R_SQUARED 0.622, read-out: LUCIFERASE INFECTION ASSAY - IC50”, the IC50 came out at 2.36 µM.

Consider `COc1cccc(-c2nc(CSc3nc4ccccc4c(=O)n3C)cs2)c1`, for which the concentration for an effect of 90% (IC90) amounted to 3.7 µM. The IC50 (FFLUC_HILL_SLOPE 18, FFLUC_R_SQUARED 0.516, HEPG2TOX_HILL_SLOPE 5.55, HEPG2TOX_R_SQUARED 0.861, PBLUC_HILL_SLOPE 17.5, PBLUC_R_SQUARED 0.299, read-out: LUCIFERASE INFECTION ASSAY - IC50) turned out to be 3.27 µM.

For `CNc1nc2cnc(Nc3cccc(NC(C)=O)c3)cc2n1-c1ccccc1`, the IC90 is greater than 10 µM. In addition, the IC50 (HEPG2TOX_HILL_SLOPE 1.67, HEPG2TOX_R_SQUARED 0.953, read-out: LUCIFERASE INFECTION ASSAY - IC50) is greater than 10 µM.

As for `COC1CC(O[C@H]2CC[C@]3(C)C4CC[C@]5(C)[C@@H](C6=CC(=O)OC6)CC[C@]5(O)[C@@H]4CC[C@]3(O)C2)OC(C)C1O` (stereo partly specified), the IC90 turned out to be 0.177 µM. Also, under “HEPG2TOX_HILL_SLOPE 1.6, HEPG2TOX_R_SQUARED 0.898, PBLUC_HILL_SLOPE 2.36, PBLUC_R_SQUARED 0.616, read-out: LUCIFERASE INFECTION ASSAY - IC50”, the half-maximal inhibitory concentration (IC50) came out at 0.0698 µM.

For the compound `Cc1sc2ncnc(Sc3nnc(C(F)(F)F)n3C)c2c1C`, the IC90 was greater than 10 µM. Besides, under setting [1], the IC50 was greater than 10 µM.

Regarding `Cc1ccc(S(=O)(=O)NN(C)c2nc3ccccc3nc2C(F)(F)F)cc1`, the IC90 came to 3.01 µM. Under “HEPG2TOX_HILL_SLOPE 2.57, HEPG2TOX_R_SQUARED 0.987, PBLUC_HILL_SLOPE 18.2, PBLUC_R_SQUARED 0.483, read-out: LUCIFERASE INFECTION ASSAY - IC50”, the IC50 was determined as 2.66 µM.

For the compound `Cc1csc(-n2c(C)cc(C(=O)CSc3nc(N)cc(N)n3)c2C)n1`, the concentration for an effect of 90% (IC90) was greater than 10 µM. In addition, under “FFLUC_HILL_SLOPE 1.79, FFLUC_R_SQUARED 0.665, read-out: LUCIFERASE INFECTION ASSAY - IC50”, the IC50 is greater than 10 µM.

Turning to `COc1ccc(OCCCN2CCN(C(=O)C34CC5CC(CC(C5)C3)C4)CC2)cc1`, the IC90 is greater than 10 µM. The IC50 under setting [1] is greater than 10 µM.

Take `C(=N\N1CCN(c2ccccn2)CC1)/C1=C(Sc2nc3ccccc3s2)CCCC1`: the IC90 was greater than 10 µM. For the same compound, the half-maximal inhibitory concentration (IC50) (HEPG2TOX_HILL_SLOPE 7.72, HEPG2TOX_R_SQUARED 0.819, PBLUC_HILL_SLOPE 7.09, PBLUC_R_SQUARED 0.503, read-out: LUCIFERASE INFECTION ASSAY - IC50) worked out at 7.43 µM.

For the compound `CC(Oc1ccccc1[N+](=O)[O-])C(=O)N(c1nccs1)C1CCCCC1` (stereo unspecified), the concentration for an effect of 90% (IC90) is greater than 10 µM. The concentration for half-maximal inhibition (IC50) under setting [1] is greater than 10 µM.

In the case of `N#Cc1ccsc1NC(=O)COc1ccc([N+](=O)[O-])cc1Cl`, the IC90 was greater than 10 µM. Further, the IC50 (FFLUC_HILL_SLOPE 45.5, FFLUC_R_SQUARED 0.53, PBLUC_HILL_SLOPE 0.51, PBLUC_R_SQUARED 0.745, read-out: LUCIFERASE INFECTION ASSAY - IC50) came out at 0.444 µM.

Take `Cc1ccc(-n2c(C)cc(/C=C(\C#N)c3nc4ccccc4s3)c2C)cc1C`: the IC90 is greater than 10 µM. For the same compound, the IC50 under setting [1] was greater than 10 µM.

With `c1cc2[nH]c(-c3ccsc3)cc2c(Nc2ccc(N3CCOCC3)cc2)n1`, the IC90 is greater than 10 µM. In addition, the IC50 (PBLUC_HILL_SLOPE 2.04, PBLUC_R_SQUARED 0.351, read-out: LUCIFERASE INFECTION ASSAY - IC50) was determined as 6.37 µM.

`CCC(=O)Nc1nc2ccc(NC(=O)c3cc(OC)cc(OC)c3)cc2s1`: the IC90 was greater than 8.56 µM. The IC50 (PBLUC_HILL_SLOPE 2.13, PBLUC_R_SQUARED 0.461, read-out: LUCIFERASE INFECTION ASSAY - IC50) stood at 5.13 µM.

Regarding `COc1ccccc1Nc1nc(-c2c(-c3ccc(Cl)cc3Cl)noc2C)cs1`, the IC90 stood at 7.32 µM. In addition, under setting [1], the IC50 was 2.27 µM.

Consider `COc1ccc(CCNC(=O)c2ccccc2NC(=O)c2cc(OC)c(OC)c(OC)c2)cc1OC`, for which the IC90 was greater than 6.67 µM. Also, the IC50 (PBLUC_HILL_SLOPE 2.16, PBLUC_R_SQUARED 0.652, read-out: LUCIFERASE INFECTION ASSAY - IC50) turned out to be 3.54 µM.

For `Cc1nn(-c2ccccc2)c(N2CCCC2)c1/C=N/Nc1ccc(S(N)(=O)=O)cc1[N+](=O)[O-]`, the IC90 was greater than 10 µM. For the same compound, the IC50 under setting [1] came out at 9.05 µM.

For the compound `CC(C)CN1CCOC(CSc2nc3sc4c(c3c(=O)n2C)CCC4)C1` (stereo unspecified), the concentration for an effect of 90% (IC90) was greater than 10 µM. The IC50 under setting [1] is greater than 10 µM.

For the compound `O=C(NC1CC1)c1ccc(-c2cnc3cnc(-c4cnn(Cc5ccccc5)c4)cn23)cc1`, the IC90 was greater than 7.59 µM. Besides, where the note is “PBLUC_HILL_SLOPE 12.1, PBLUC_R_SQUARED 0.417, read-out: LUCIFERASE INFECTION ASSAY - IC50”, the IC50 was determined as 6.99 µM.

As for `CCOC(=O)c1c(C)nn(-c2ccc(NC(=O)c3cccs3)cc2)c1C`, the IC90 amounted to 5.59 µM. The 50% inhibitory concentration (IC50) (PBLUC_HILL_SLOPE 1.61, PBLUC_R_SQUARED 0.613, read-out: LUCIFERASE INFECTION ASSAY - IC50) is 1.43 µM.

Take `O=C(CCC(=O)N1CCC(C(O)(c2ccccc2)c2ccccc2)CC1)c1cccs1`: the IC90 came to 3.65 µM. Further, the IC50 (HEPG2TOX_HILL_SLOPE 0.15, HEPG2TOX_R_SQUARED 0.513, PBLUC_HILL_SLOPE 4.19, PBLUC_R_SQUARED 0.279, read-out: LUCIFERASE INFECTION ASSAY - IC50) is 2.16 µM.

On to `COc1ccc(-c2c(C)nn3c(=O)cc(CSc4ccc(C)cc4)[nH]c23)cc1`, for which the IC90 came out at 3.91 µM. For the same compound, the IC50 (HEPG2TOX_HILL_SLOPE 2.74, HEPG2TOX_R_SQUARED 0.727, PBLUC_HILL_SLOPE 9.33, PBLUC_R_SQUARED 0.653, read-out: LUCIFERASE INFECTION ASSAY - IC50) was 3.09 µM.

For `C/C(=N\Nc1nc2ccccc2[nH]1)c1ccc(Cl)s1`, the IC90 is greater than 10 µM. Besides, the IC50 (PBLUC_HILL_SLOPE 13.6, PBLUC_R_SQUARED 0.0664, read-out: LUCIFERASE INFECTION ASSAY - IC50) is 9.32 µM.

Take `CC(C)C(=O)NC1CCCC(C)C1C` (stereo unspecified): the IC90 is greater than 2 µM. The IC50 under setting [1] was greater than 2 µM.

As to `CCOC(=O)c1c(NC(=O)C(C)OC(=O)c2ccccc2Sc2ccccc2C#N)sc2c1CCCC2` (stereo unspecified), the IC90 was greater than 10 µM. In addition, the IC50 under setting [1] is greater than 10 µM.

As for `OCc1ccc(-c2cn3c(-c4cccc(Cl)c4)cnc3cn2)cc1`, the IC90 is greater than 9.83 µM. For the same compound, under “PBLUC_HILL_SLOPE 0.56, PBLUC_R_SQUARED 0.237, read-out: LUCIFERASE INFECTION ASSAY - IC50”, the IC50 is greater than 9.83 µM.

With `Cc1ncc(CO)c(/C=N/NC(=S)Nc2ccc(C(C)C)cc2)c1O`, the IC90 is greater than 10 µM. Moreover, where the note is “HEPG2TOX_HILL_SLOPE 0.0695, HEPG2TOX_R_SQUARED 0.0364, read-out: LUCIFERASE INFECTION ASSAY - IC50”, the IC50 was greater than 10 µM.
